In assay [1] the target is T1, SIK3 kinase (aa59-365, Thermo Fisher) (Homo sapiens, UniProt Q9Y2K2).
T1 construct: SIK3 kinase (aa59-365, Thermo Fisher); purchased Thermo Fisher
The experiment in a line: Biochemical activities determination for SIK3 protein (TR-FRET). The note with it: 125 uM ATP, 0.5 μM STK1 substrate. A digest of the protocol:
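SIK3 (aa59-365) was preincubated with compound (0-10 μM) for 60 min at room temperature in Tris buffer pH 7.5. The reaction was then started with 125 uM ATP and 0.5 μM STK1 substrate and run 180 min at room temperature. Phospho-substrate was detected by HTRF (665/620 nm ratio), and IC50 came from a four-parameter logistic fit.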

In assay [2] the target is T2, SIK2 kinase (full length, Thermo Fisher) (Homo sapiens, UniProt Q9H0K1).
T2 construct: SIK2 kinase (full length, Thermo Fisher); purchased Thermo Fisher
T2 sequence (Q9H0K1 whole entry): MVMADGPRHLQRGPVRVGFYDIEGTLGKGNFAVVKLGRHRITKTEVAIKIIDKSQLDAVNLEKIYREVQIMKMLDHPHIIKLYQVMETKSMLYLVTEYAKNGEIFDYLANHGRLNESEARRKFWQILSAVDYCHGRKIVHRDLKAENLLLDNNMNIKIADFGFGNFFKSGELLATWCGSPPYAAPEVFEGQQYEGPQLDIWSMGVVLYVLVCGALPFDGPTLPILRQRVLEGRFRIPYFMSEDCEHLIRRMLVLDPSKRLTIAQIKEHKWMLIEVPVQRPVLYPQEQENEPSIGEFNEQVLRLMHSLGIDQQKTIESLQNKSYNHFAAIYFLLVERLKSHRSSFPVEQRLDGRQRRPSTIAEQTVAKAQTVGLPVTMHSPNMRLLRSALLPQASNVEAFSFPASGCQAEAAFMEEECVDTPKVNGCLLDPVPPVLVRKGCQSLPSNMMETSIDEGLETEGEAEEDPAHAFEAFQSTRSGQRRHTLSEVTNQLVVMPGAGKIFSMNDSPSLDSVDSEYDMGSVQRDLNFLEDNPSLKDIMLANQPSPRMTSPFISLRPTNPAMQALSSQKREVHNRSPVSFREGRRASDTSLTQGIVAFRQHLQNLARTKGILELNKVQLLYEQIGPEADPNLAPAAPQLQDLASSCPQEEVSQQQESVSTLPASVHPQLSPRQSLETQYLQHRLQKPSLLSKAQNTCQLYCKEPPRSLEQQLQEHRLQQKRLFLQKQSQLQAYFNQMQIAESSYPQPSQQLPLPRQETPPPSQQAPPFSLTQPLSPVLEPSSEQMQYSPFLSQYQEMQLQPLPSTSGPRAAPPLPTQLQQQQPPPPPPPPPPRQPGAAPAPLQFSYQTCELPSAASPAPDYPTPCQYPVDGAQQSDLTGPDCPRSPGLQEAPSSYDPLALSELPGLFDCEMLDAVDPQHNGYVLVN
Kind of assay: Biochemical activities determination for SIK2 protein (TR-FRET). The following applies: 80 uM ATP, 0.5 μM substrate. The procedure, abridged: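 Full-length SIK2 preincubated 60 min with 0–10 μM compound, then reacted 180 min at room temperature with 80 uM ATP and 0.5 μM biotinylated substrate (pH 7.5 Tris/MgCl2 buffer). Phosphorylation detected by TR-FRET (665/620 nm ratio, cryptate antibody/streptavidin-XL665) after overnight incubation; IC50 from four-parameter logistic fit.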
A general note: Time-resolved FRET reads energy transfer from a long-lived donor to a nearby acceptor.

Assay [3] concerns the target T3, SIK1 kinase (aa1-303, Thermo Fisher) (Homo sapiens, UniProt P57059).
T3 construct: SIK1 kinase (aa1-303, Thermo Fisher); purchased Thermo Fisher
Kind of assay: Biochemical activities determination for SIK1 protein (TR-FRET). The following applies: 110 uM ATP, 0.5 μM STK1 substrate. The procedure, abridged: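 TR-FRET kinase assay with SIK1 (aa1-303), 110 uM ATP, 0.5 μM STK1 substrate and 0-10 μM compound in Tris pH 7.5 with MgCl2, EGTA, DTT, Triton X-100. Enzyme preincubated with compound 60 min, reaction 180 min at room temperature; 665/620 nm ratio after overnight detection; IC50 from four-parameter logistic fit.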

Among the data in patent US20260085053A1, “BENZOFURAN DERIVATIVES AS SIK INHIBITORS AND THE USE THEREOF” (BEONE MEDICINES I GMBH, priority 2023, published 2026) are IC50 values, retold here.

T1 sequence (Q9Y2K2 59-365): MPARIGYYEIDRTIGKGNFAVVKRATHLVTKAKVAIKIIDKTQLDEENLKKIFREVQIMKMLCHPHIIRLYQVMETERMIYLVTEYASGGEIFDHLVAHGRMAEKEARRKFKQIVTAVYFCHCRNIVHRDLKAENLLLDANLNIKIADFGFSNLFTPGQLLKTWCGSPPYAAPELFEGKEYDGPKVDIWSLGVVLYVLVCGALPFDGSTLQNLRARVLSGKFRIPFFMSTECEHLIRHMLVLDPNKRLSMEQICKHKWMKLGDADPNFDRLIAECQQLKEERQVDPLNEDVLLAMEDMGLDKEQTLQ
T3 sequence (P57059 1-303): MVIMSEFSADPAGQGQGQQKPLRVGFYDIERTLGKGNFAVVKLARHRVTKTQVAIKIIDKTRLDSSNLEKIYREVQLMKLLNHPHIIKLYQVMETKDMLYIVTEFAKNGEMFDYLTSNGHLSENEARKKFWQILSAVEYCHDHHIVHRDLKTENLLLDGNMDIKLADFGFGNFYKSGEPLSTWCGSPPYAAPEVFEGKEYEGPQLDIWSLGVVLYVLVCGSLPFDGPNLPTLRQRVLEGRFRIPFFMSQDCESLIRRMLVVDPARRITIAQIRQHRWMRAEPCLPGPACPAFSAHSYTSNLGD

Consider `COc1cc(-c2coc3cc(-c4cnnc(C)c4)ccc23)cc2c1C(=O)N(CC(F)(F)F)CC2` [Example 10, 8-methoxy-6-(6-(6-methylpyridazin-4-yl)benzofuran-3-yl)-2-(2,2,2-trifluoroethyl)-3,4-dihydroisoquinolin-1 (2H)-one], for which the figures for the IC50 in assay [1], in assay [2] and in assay [3] were 187 nM, 418 nM and greater than 10000 nM, respectively.

For the compound `NC1CCN(c2cccc3ccc(-c4coc5cc(OCCN6CCOCC6)ccc45)nc23)CC1` [Compound 134, 1-(2-(6-(2-morpholinoethoxy)benzofuran-3-yl)quinolin-8-yl) piperidin-4-amine], the IC50 (usually the concentration needed to halve the response being measured) in assay [1] came to 156 nM; in assay [2] it was 66 nM; in assay [3], 958 nM.

Consider `CN1CC(COc2cc(-c3coc4cc(OCCN5CCCC5)ccc34)cc(OC(F)F)c2C(=O)NC2CC2)C1` [Compound 115, N-cyclopropyl-2-(difluoromethoxy)-6-((1-methylazetidin-3-yl)methoxy)-4-(6-(2-(pyrrolidin-1-yl)ethoxy)benzofuran-3-yl)benzamide], for which the figures for the IC50 in assay [1], in assay [2] and in assay [3] were 4240 nM, 582 nM and greater than 10000 nM, respectively.

Regarding `COc1cc(-c2coc3cc(OCCN4CCCC4)ccc23)cc(OC(F)F)c1C(=O)NC1CCC1` [Compound 129, N-cyclobutyl-2-(difluoromethoxy)-6-methoxy-4-(6-(2-(pyrrolidin-1-yl)ethoxy)benzofuran-3-yl)benzamide], the IC50 in assay [1] was 683 nM; in assay [2] it was 146 nM; in assay [3] it was greater than 10000 nM.

Regarding `COc1cc(-c2coc3cc(OCCN4CCC[C@H]4C)ccc23)cc(OC(F)F)c1C(=O)N[C@@H]1C[C@@H]1F` [Compound 77, 2-(difluoromethoxy)-N-((1R,2S)-2-fluorocyclopropyl)-6-methoxy-4-(6-(2-((R)-2-methylpyrrolidin-1-yl)ethoxy)benzofuran-3-yl)benzamide], the half-inhibitory concentration (IC50) came to 80 nM in assay [1], 27 nM in assay [2] and 3370 nM in assay [3].

Consider `CC[C@H]1CCN(CCOc2ccc3c(-c4cc(OC)c(C(=O)N[C@@H]5C[C@@H]5F)c(OC(F)F)c4)coc3c2)C1` [Compound 96, 2-(difluoromethoxy)-4-(6-(2-((S)-3-ethylpyrrolidin-1-yl)ethoxy)benzofuran-3-yl)-N-((1R,2S)-2-fluorocyclopropyl)-6-methoxybenzamide], for which the figures for the concentration for half-maximal inhibition (IC50) in assay [1], in assay [2] and in assay [3] were 43 nM, 22 nM and 2040 nM, respectively.

Consider `COc1cc(-c2coc3cc(-c4cc(C)n[nH]4)ccc23)cc2c1C(=O)N(CC(F)(F)F)CC2` [Example 5, 8-methoxy-6-(6-(3-methyl-1H-pyrazol-5-yl)benzofuran-3-yl)-2-(2,2,2-trifluoroethyl)-3,4-dihydroisoquinolin-1 (2H)-one], for which the IC50 in assay [1] came out at 41 nM; in assay [2], 33 nM; in assay [3] it was 538 nM.

As for `COc1cc(-c2coc3cc(OCCN(C)C)ccc23)cc(OC(F)F)c1C(=O)N[C@@H]1C[C@@H]1F` [Compound 73, 2-(difluoromethoxy)-4-(6-(2-(dimethylamino)ethoxy)benzofuran-3-yl)-N-((1R,2S)-2-fluorocyclopropyl)-6-methoxybenzamide], the IC50 in assay [1] stood at 65 nM; in assay [2], 24 nM; in assay [3], 3260 nM.

With `COc1cc(-c2coc3cc(OCCN4CCCC4)ccc23)cc(OC(F)F)c1C(=O)NC1CC1N` (racemic) [Compound 131, N-(2-aminocyclopropyl)-2-(difluoromethoxy)-6-methoxy-4-(6-(2-(pyrrolidin-1-yl)ethoxy)benzofuran-3-yl)benzamide], the IC50 in assay [1] is 1560 nM; in assay [2], 653 nM; in assay [3] it was greater than 10000 nM.

For the compound `CN1CC[C@H]1COc1cc(-c2coc3cc(OCCN4CCCC4)ccc23)cc(OC(F)F)c1C(=O)NC1CC1` [Compound 117, (S)—N-cyclopropyl-2-(difluoromethoxy)-6-((1-methylazetidin-2-yl)methoxy)-4-(6-(2-(pyrrolidin-1-yl)ethoxy)benzofuran-3-yl)benzamide], the 50% inhibitory concentration (IC50) in assay [1] is greater than 10000 nM; in assay [2], 2940 nM; in assay [3] it was greater than 10000 nM.

`COc1cc(-c2coc3cc(OCCN4CCOCC4)ccc23)cc(OC(F)F)c1C(=O)N[C@@H]1C[C@@H]1F` [Compound 69, 2-(difluoromethoxy)-N-((1R,2S)-2-fluorocyclopropyl)-6-methoxy-4-(6-(2-morpholinoethoxy)benzofuran-3-yl)benzamide]: the values for the 50% inhibitory concentration (IC50) in assay [1], in assay [2] and in assay [3] were 45 nM, 41 nM and 1270 nM, respectively.

For `COc1cc(-c2coc3cc(OCCN4CCCC4)ccc23)cc(OC(F)F)c1C(=O)NC1CCCCC1N` (racemic) [Compound 124, N-(2-aminocyclohexyl)-2-(difluoromethoxy)-6-methoxy-4-(6-(2-(pyrrolidin-1-yl)ethoxy)benzofuran-3-yl)benzamide], the concentration for half-maximal inhibition (IC50) came out at 161 nM in assay [1], 18 nM in assay [2] and 1220 nM in assay [3].

Consider `COc1cc(-c2coc3cc(OCCN4CCCC[C@@H]4C)ccc23)cc(OC(F)F)c1C(=O)N[C@@H]1C[C@@H]1F` [Compound 91, 2-(difluoromethoxy)-N-((1R,2S)-2-fluorocyclopropyl)-6-methoxy-4-(6-(2-((S)-2-methylpiperidin-1-yl)ethoxy)benzofuran-3-yl)benzamide], for which the IC50 in assay [1] came out at 74 nM; in assay [2], 31 nM; in assay [3], 2500 nM.

Take `COc1cc(-c2coc3cc(OCCN4CCC[C@H](C)C4)ccc23)cc(OC(F)F)c1C(=O)N[C@@H]1C[C@@H]1F` [Compound 88, 2-(difluoromethoxy)-N-((1R,2S)-2-fluorocyclopropyl)-6-methoxy-4-(6-(2-((S)-3-methylpiperidin-1-yl)ethoxy)benzofuran-3-yl)benzamide]: the IC50 in assay [1] was 68 nM; in assay [2], 17 nM; in assay [3], 4540 nM.

On to `COc1cc(-c2coc3cc(-c4cnn(C)c4)ccc23)cc(OC)c1-c1nnc(C)o1` [Compound 34, 2-(2,6-dimethoxy-4-(6-(1-methyl-1H-pyrazol-4-yl)benzofuran-3-yl)phenyl)-5-methyl-1,3,4-oxadiazole], for which the 50% inhibitory concentration (IC50) in assay [1] is 420 nM; in assay [2], 239 nM; in assay [3] it was 2680 nM.

`COc1cc(-c2coc3cc(-c4cnn(C5CN(C)C5)c4)ccc23)cc2c1C(=O)N(CC(F)(F)F)CC2` [Compound 53, 8-methoxy-6-(6-(1-(1-methylazetidin-3-yl)-1H-pyrazol-4-yl)benzofuran-3-yl)-2-(2,2,2-trifluoroethyl)-3,4-dihydroisoquinolin-1 (2H)-one]: the half-inhibitory concentration (IC50) in assay [1] is 19 nM; in assay [2], 2.8 nM; in assay [3], 294 nM.

In the case of `COc1cc(-c2coc3cc(-c4cnn(C)c4)ccc23)cc2c1C(=O)N(CC(F)(F)F)[C@H](C)C2` [Compound 29B, (R)-8-methoxy-3-methyl-6-(6-(1-methyl-1H-pyrazol-4-yl)benzofuran-3-yl)-2-(2,2,2-trifluoroethyl)-3,4-dihydroisoquinolin-1 (2H)-one], the results for the IC50 in assay [1], in assay [2] and in assay [3] were 374 nM, 178 nM and 5980 nM, respectively.
